Results: US10080366B2, “Agent for increasing sugar content in fruit” (RIKEN, priority 2012, dated 2018)
Read-outs that look alike come from different tables or passages of the source.

Legend:
[1] = test system: fruit of grape (variety: Steuben); details: 10 g/L
Experimental: An agent for increasing a sugar content in a fruit (containing Sorbon T-20 as a spreader/sticker at a final concentration of 200 μL/L) diluted with water to contain potassium hydrogen carbonate at 10 g/L was prepared. The mass of fruit of grape (variety: Steuben) purchased on the market was measured. Then, the prepared agent for increasing a sugar content in a fruit was applied by spraying to the fruit of grape. The fruit of grape was allowed to stand in an air-conditioned greenhouse (temperature: 25° C.), and the mass was measured over time (date of application: Feb. 7, 2011). In addition, as a control, the mass of untreated grape was measured on each of the dates of measurement in the same manner.

[2] = test system: fruit of grape (variety: Red Globe)
Experimental: Agents for increasing a sugar content in a fruit (containing Sorbon T-20 as a spreader/sticker at a final concentration of 200 μL/L) diluted with water to have the concentrations of potassium hydrogen carbonate shown in Table 4 were prepared. The mass of fruit of grape (variety: Red Globe) purchased on the market was measured. Then, the prepared agents for increasing a sugar content in a fruit were applied by spraying to the fruit of grape, which was then allowed to stand in an air-conditioned greenhouse (temperature: 25° C.). The mass of the fruit of grape was measured over time (date of application: Mar. 10, 2011). In addition, as a control, the mass of untreated grape was measured on each date of measurement in the same manner. […] Note that the decrease ratio (cumulative, %) represents the percentage (%) of the mass decreased from the date of application to each of the dates of measurement, and the decrease ratio (%/day) represents the average ratio (%) of decrease in mass in a period between each of the dates of measurement and the preceding date of measurement (=(the mass (g) on the preceding date of measurement of each of the dates of measurement−the mass (g) on the date of measurement)/the mass (g) on the preceding date of measurement of the date of measurement/the number of days from the preceding date of measurement of the date of measurement to the date of measurement×100).

[3] = test system: fruit of trellised grape (variety: Pinot noir)
Experimental: To fruit of trellised grape (variety: Pinot noir), an aqueous potassium hydrogen carbonate solution (20 g/L) was applied three times at intervals of one week. The fruit was harvested 21 days after the first application, and the sugar content, acidity, and amino acid concentration were measured. In addition, the harvested fruit was kept in an air-conditioned greenhouse (25° C.) for 10 days, and the drying state of the fruit was observed.

[4] = test system: grapes (varieties: Chardonnay, Pinot noir, Merlot, and Cabernet Sauvignon); details: for sugar content in fruit compared with untreated: 3000 L/ha, entire vines, repeated, all four varieties
Experimental: To the entire vines including leaves and stems of grapes (varieties: Chardonnay, Pinot noir, Merlot, and Cabernet Sauvignon, 7 years old) in a farm field, an agent (containing Sorbon T-20 as a spreader/sticker at a concentration of 200 μL/L) for increasing a sugar content in a fruit diluted with water to have a potassium hydrogen carbonate concentration of 5 g/L or 10 g/L was applied in a sufficient amount (3000 L/ha (in this case, the amount of potassium hydrogen carbonate was 15 kg/ha for the 5 g/L sample or 30 kg/ha for the 10 g/L sample) each time. The application was repeatedly conducted at intervals of approximately 2 weeks or approximately 1 week as shown in FIGS. 1 to 4. The sugar concentration in the fruit was measured over time. As a control, unapplied vines were provided. The sampling was started before the first application, and a sample was collected before each application, and measured for the sugar content. Three vines were used for each treated group. Note that the expected harvest dates were September 20 for Chardonnay, October 10 for Merlot, October 20 for Cabernet Sauvignon, and September 30 for Pinot noir.
For the measurement of the sugar content, three clusters were taken from each of the treated vines on each of the dates of measurement, and the juice was squeezed and measured for the Brix sugar content (%) with a refractometer for sugar content (manufactured by Atago Co., Ltd.). Likewise, the acidity (%) was also measured with an acidity meter (manufactured by Atago Co., Ltd.).

[5] = test system: clusters of grape (variety: Crimson); assay: Estimated transpiration ratio of grape clusters (Example 9); type: in vivo; details: 10 g/L; 8 days after treatment

O=C([O-])O.[K+] [Potassium hydrogen carbonate, potassium hydrogen carbonate]
increase of amount of transpiration in comparison with untreated ([1]; 7 days): approximately 25%
water lost per 100 g of grape ([1]; 7 days, decrease in mass assumed to be transpiration): approximately 25 ml
mass of fruit per 100 g on date of application, 1 day later ([1]; Feb. 8): 96.2 g
mass of fruit per 100 g on date of application, 2 days later ([1]; Feb. 9): 92.1 g
mass of fruit per 100 g on date of application, 3 days later ([1]; Feb. 10): 88.6 g
mass of fruit per 100 g on date of application, 7 days later ([1]; Feb. 14): 74.9 g
sugar content 7 days later (calculated) ([1]; assuming 15% on date of application): 20.0%
ratio of decrease in mass compared with untreated ([2]; 5 g/L and 10 g/L): higher ratios of decrease in mass than the untreated fruit
Mass ([2]; 5 g/L, Mar. 10 (date of application)): 240.4 g
Decrease ratio (%/day) ([2]; 5 g/L, Mar. 11): 2.6 %/day
Decrease ratio (cumulative %) ([2]; 5 g/L, Mar. 11): 2.6%
Mass ([2]; 5 g/L, Mar. 11): 234.1 g
Decrease ratio (%/day) ([2]; 5 g/L, Mar. 14): 2.5 %/day
Decrease ratio (cumulative %) ([2]; 5 g/L, Mar. 14): 9.9%
Mass ([2]; 5 g/L, Mar. 14): 216.7 g
Decrease ratio (%/day) ([2]; 5 g/L, Mar. 15): 2.5 %/day
Decrease ratio (cumulative %) ([2]; 5 g/L, Mar. 15): 12.1%
Mass ([2]; 5 g/L, Mar. 15): 211.4 g
Decrease ratio (%/day) ([2]; 5 g/L, Mar. 16): 2.2 %/day
Decrease ratio (cumulative %) ([2]; 5 g/L, Mar. 16): 14.0%
Mass ([2]; 5 g/L, Mar. 16): 206.7 g
Decrease ratio (%/day) ([2]; 5 g/L, Mar. 18): 2.1 %/day
Decrease ratio (cumulative %) ([2]; 5 g/L, Mar. 18): 17.7%
Mass ([2]; 5 g/L, Mar. 18): 197.8 g
Decrease ratio (%/day) ([2]; 5 g/L, Mar. 22): 2.0 %/day
Decrease ratio (cumulative %) ([2]; 5 g/L, Mar. 22): 24.1%
Mass ([2]; 5 g/L, Mar. 22): 182.4 g
Decrease ratio (%/day) ([2]; 5 g/L, Mar. 23): 2.8 %/day
Decrease ratio (cumulative %) ([2]; 5 g/L, Mar. 23): 26.3%
Mass ([2]; 5 g/L, Mar. 23): 177.3 g
Decrease ratio (%/day) ([2]; 5 g/L, Mar. 24): 2.2 %/day
Decrease ratio (cumulative %) ([2]; 5 g/L, Mar. 24): 27.8%
Mass ([2]; 5 g/L, Mar. 24): 173.5 g
Decrease ratio (%/day) ([2]; 5 g/L, Mar. 30): 2.3 %/day
Decrease ratio (cumulative %) ([2]; 5 g/L, Mar. 30): 37.8%
Mass ([2]; 5 g/L, Mar. 30): 149.4 g
Mass ([2]; 10 g/L, Mar. 10 (date of application)): 200.5 g
Decrease ratio (%/day) ([2]; 10 g/L, Mar. 11): 2.9 %/day
Decrease ratio (cumulative %) ([2]; 10 g/L, Mar. 11): 2.9%
Mass ([2]; 10 g/L, Mar. 11): 194.8 g
Decrease ratio (%/day) ([2]; 10 g/L, Mar. 14): 3 %/day
Decrease ratio (cumulative %) ([2]; 10 g/L, Mar. 14): 11.6%
Mass ([2]; 10 g/L, Mar. 14): 177.2 g
Decrease ratio (%/day) ([2]; 10 g/L, Mar. 15): 3.3 %/day
Decrease ratio (cumulative %) ([2]; 10 g/L, Mar. 15): 14.5%
Mass ([2]; 10 g/L, Mar. 15): 171.4 g
Decrease ratio (%/day) ([2]; 10 g/L, Mar. 16): 2.9 %/day
Decrease ratio (cumulative %) ([2]; 10 g/L, Mar. 16): 17.0%
Mass ([2]; 10 g/L, Mar. 16): 166.5 g
Decrease ratio (%/day) ([2]; 10 g/L, Mar. 18): 2.7 %/day
Decrease ratio (cumulative %) ([2]; 10 g/L, Mar. 18): 21.5%
Mass ([2]; 10 g/L, Mar. 18): 157.4 g
Decrease ratio (%/day) ([2]; 10 g/L, Mar. 22): 2.5 %/day
Decrease ratio (cumulative %) ([2]; 10 g/L, Mar. 22): 29.5%
Mass ([2]; 10 g/L, Mar. 22): 141.3 g
Decrease ratio (%/day) ([2]; 10 g/L, Mar. 23): 3.6 %/day
Decrease ratio (cumulative %) ([2]; 10 g/L, Mar. 23): 32.0%
Mass ([2]; 10 g/L, Mar. 23): 136.3 g
Decrease ratio (%/day) ([2]; 10 g/L, Mar. 24): 2.8 %/day
Decrease ratio (cumulative %) ([2]; 10 g/L, Mar. 24): 33.9%
Mass ([2]; 10 g/L, Mar. 24): 132.5 g
Decrease ratio (%/day) ([2]; 10 g/L, Mar. 30): 2.9 %/day
Decrease ratio (cumulative %) ([2]; 10 g/L, Mar. 30): 45.3%
Mass ([2]; 10 g/L, Mar. 30): 109.7 g
Acidity ([3]; 20 g/L x3, at harvest): 0.8
Amino acid concentration ([3]; 20 g/L x3, at harvest): 2800 µg/L
State 10 days after harvest (drying state) ([3]; 20 g/L x3, kept in greenhouse (25° C.) for 10 days): dried faster than the untreated grape
Sugar content (%) ([3]; 20 g/L, three times at intervals of one week, at harvest, 21 days after first application): 46%
acidity compared with untreated ([4]; 5 g/L or 10 g/L): kept equal to or slightly higher than that of the untreated group
sugar content in fruit compared with untreated ([4]; 5 g/L): greater increase in sugar content than the untreated fruit of grape
sugar content in fruit compared with untreated ([4]; 10 g/L): greater increase in sugar content than the untreated fruit of grape
Estimated transpiration ratio (%) Average [5]: 31%
Estimated transpiration ratio (%) First [5]: 33%
Estimated transpiration ratio (%) Second [5]: 28%
